Assay results as given in patent US6706664B1, “Benzoxazole compounds, process for the preparation thereof and herbicides” (UBE Industries, Ltd., priority 1999, dated 2004).

Assays:
Set-up in all cases: key: 0: normal development; 1: Less damaged; 2: Slightly damaged; 3: Moderately damaged; 4: Severely damaged; 5: All killed
morning glory = experiment: Foliar spread test for upland field; format: in vivo, Ipomoea spps.; conditions: foliar spray 500 ppm, 3 weeks, rank vs non-treated
How it was run: (§1)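 Post-emergence foliar spray, 500 ppm (wettable powder in water + 0.5% surfactant), on ~2-week-old plants grown in volcanic ash soil; glasshouse, avg 25° C, 3 wk; visual damage score 0–5.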

barnyardgrass [1] = experiment: Herbicidal test for paddy field; format: in vivo, Echinochloa crusgalli; conditions: paddy field pot, 500 g/ha dropwise at 1.5 leaf stage of barnyardgrass, 3 weeks, rank vs non-treated
How it was run: (§2)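 Ube alluvial soil in pots flooded to 3 cm water depth, sown with seeds or tubers. Wettable powder diluted in water with 0.05% surfactant was dripped onto the water at 500 g/ha when barnyardgrass reached the 1.5-leaf stage. After 3 weeks in a glasshouse at an average of 25° C, damage was scored 0 (normal) to 5 (all killed) against untreated pots.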

common lambsquartes [2] = experiment: Soil treatment test for upland field; format: in vivo, Chenopodium album; conditions: 500 g/ha, glass house 25° C., 3 weeks
How it was run: (§3)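 Pre-emergence: seeds sown in Ube alluvial soil in pots, then soil surface sprayed with wettable-powder formulation diluted in water with 0.05% surfactant at 500 g/ha. Plants kept in glasshouse at average 25° C for 3 weeks; injury scored 0 (normal) to 5 (all killed).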

livid amaranth = experiment: Foliar spread test for upland field; format: in vivo, Amaranthus lividus; conditions: foliar spray 500 ppm, 3 weeks, rank vs non-treated
How it was run: as §1

annual bluegrass [3] = experiment: Soil treatment test for upland field; format: in vivo, Poa annua; conditions: 500 g/ha, glass house 25° C., 3 weeks
How it was run: as §3

green foxtail [4] = experiment: Soil treatment test for upland field; format: in vivo, Setaria viridis; conditions: 500 g/ha, glass house 25° C., 3 weeks
How it was run: as §3

velvetleaf [5] = experiment: Foliar spread test for upland field; format: in vivo, Abutilon theophrasti; conditions: foliar spray 500 ppm, 3 weeks, rank vs non-treated
How it was run: as §1

blackgrass [6] = experiment: Soil treatment test for upland field; format: in vivo, Alopecurus aegualis; conditions: 500 g/ha, glass house 25° C., 3 weeks
How it was run: as §3

green foxtail [7] = experiment: Foliar spread test for upland field; format: in vivo, Setaria viridis; conditions: foliar spray 500 ppm, 3 weeks, rank vs non-treated
How it was run: as §1

sugar beat = experiment: Foliar spread test for upland field; format: in vivo; conditions: foliar spray 500 ppm, 3 weeks, rank vs non-treated
How it was run: (§4)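 Scoring used a 0–5 scale, where 0 meant normal development and 5 meant all plants killed, assessed 3 weeks after treatment. Plants had been grown about 2 weeks from seed in volcanic ash soil before a uniform spray at 500 ppm containing 0.5% surfactant.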

corn = experiment: Foliar spread test for upland field; format: in vivo; conditions: foliar spray 500 ppm, 3 weeks, rank vs non-treated
How it was run: as §4

wheat = experiment: Foliar spread test for upland field; format: in vivo; conditions: foliar spray 500 ppm, 3 weeks, rank vs non-treated
How it was run: as §4

solgum = experiment: Foliar spread test for upland field; format: in vivo; conditions: foliar spray 500 ppm, 3 weeks, rank vs non-treated
How it was run: as §4

common lambsquartes [8] = experiment: Foliar spread test for upland field; format: in vivo, Chenopodium album; conditions: foliar spray 500 ppm, 3 weeks, rank vs non-treated
How it was run: as §1

barnyardgrass [9] = experiment: Soil treatment test for upland field; format: in vivo, Echinochloa crusgalli; conditions: 500 g/ha, glass house 25° C., 3 weeks
How it was run: as §3

young rice plant = experiment: Herbicidal test for paddy field; format: in vivo; conditions: paddy field pot, 500 g/ha dropwise at 1.5 leaf stage of barnyardgrass, 3 weeks, rank vs non-treated
How it was run: as §2

blackgrass [10] = experiment: Foliar spread test for upland field; format: in vivo, Alopecurus aegualis; conditions: foliar spray 500 ppm, 3 weeks, rank vs non-treated
How it was run: as §1

velvetleaf [11] = experiment: Soil treatment test for upland field; format: in vivo, Abutilon theophrasti; conditions: 500 g/ha, glass house 25° C., 3 weeks
How it was run: as §3

annual bluegrass [12] = experiment: Foliar spread test for upland field; format: in vivo, Poa annua; conditions: foliar spray 500 ppm, 3 weeks, rank vs non-treated
How it was run: as §1

SMILES | Effects Morning glory (morning glory) | Effect Barnyardgrass (barnyardgrass [1]) | Effects Common lambsquarters (common lambsquartes [2]) | Effects Livid amaranth (livid amaranth) | Effects Annual bluegrass (annual bluegrass [3]) | Effects Green foxtail (green foxtail [4]) | Effects Velvetleaf (velvetleaf [5]) | Effects Blackgrass (blackgrass [6]) | Effects Green foxtail (green foxtail [7]) | Effects Sugar beat (sugar beat) | Effects Corn (corn) | Effects Wheat (wheat) | Effects Solgum (solgum) | Effects Common lambsquarters (common lambsquartes [8]) | Effects Barnyardgrass (barnyardgrass [9]) | Effect Young rice plant (young rice plant) | Effects Blackgrass (blackgrass [10]) | Effects Velvetleaf (velvetleaf [11]) | Effects Annual bluegrass (annual bluegrass [12])
CCC(Oc1ccc(F)c(C(F)(F)F)c1)c1nc2cc(F)ccc2o1 (centres unmarked) [Compound 119, 1-(5-fluorobenzoxazol-2-yl)-1-(4-fluoro-3-(trifluoromethyl)phenoxy)propane] | 3 | 3 | 1 | 4 | 5 | 5 | 2 | 3 | 1 | 3 | 2 | 1 | 1 | 4 | 5 | 1 | – | – | –
CC(Oc1ccc(F)c(C(F)(F)F)c1)c1nc2cc(Cl)ccc2o1 (centres unmarked) [Compound 137] | 2 | 3 | 2 | 4 | 5 | 5 | 1 | 3 | 3 | 5 | 2 | 1 | 1 | – | 3 | 1 | – | – | –
CCC(Oc1cccc(C(F)(F)F)c1)c1nc2cc(Br)ccc2o1 (centres unmarked) [Compound 166] | 4 | 3 | 2 | 4 | 5 | 5 | 2 | 3 | 3 | 4 | 3 | 1 | 1 | 4 | 4 | 1 | 1 | – | –
CCCC(Oc1cccc(C(F)(F)F)c1)c1nc2cc(C#N)c(C#N)cc2o1 (centres unmarked) [Compound 317] | – | 3 | 5 | 5 | 5 | 5 | 3 | 5 | 5 | 5 | 2 | 2 | 1 | 5 | 3 | 1 | 2 | 5 | 5
CCCC(Oc1ccc(F)c(C(F)(F)F)c1)c1nc2cc(F)c(Cl)cc2o1 (centres unmarked) [Compound 494] | 2 | 5 | 4 | 5 | 5 | 5 | 2 | 5 | 3 | 3 | 2 | 1 | 1 | 4 | 4 | – | – | 3 | –
CCCC(Oc1cccc(C(F)(F)F)c1)c1nc2cc(F)c(Cl)cc2o1 (centres unmarked) [Compound 497] | – | 4 | 5 | 5 | 4 | 5 | 3 | – | 4 | 5 | 2 | 2 | 1 | 2 | – | 2 | – | 3 | 2
CCC(Oc1cccc(C#N)c1)c1nc2cc(F)c(Cl)cc2o1 (centres unmarked) [Compound 498] | – | 3 | 5 | 4 | 5 | 5 | 2 | 4 | 4 | 4 | 1 | 2 | 1 | – | 3 | 1 | – | 3 | 2
CCC(Oc1cccc(OC(F)(F)F)c1)c1nc2cc(C#N)c(C#N)cc2o1 (centres unmarked) [Compound 527] | – | 4 | 5 | 5 | 5 | 5 | 3 | 4 | 5 | 5 | – | 2 | 1 | 5 | 4 | 2 | 2 | 5 | 5
CCC(Oc1cccc(C(F)(F)F)c1)c1nc2cc(C#N)c(Cl)cc2o1 (centres unmarked) [Compound 529] | 3 | 5 | 5 | 5 | 5 | 5 | 3 | 5 | 5 | 5 | – | 2 | 3 | 5 | 5 | – | 4 | 5 | 4
CCCC(Oc1cccc(C(F)(F)F)c1)c1nc2cc(C#N)c(Cl)cc2o1 (centres unmarked) [Compound 532] | 3 | 5 | 5 | 5 | 5 | 5 | 3 | 5 | 5 | 5 | 2 | – | 2 | 5 | 5 | – | 4 | 5 | 4
